What was measured:
[1] = tested on: H929 human cancer cell lines; assay: Cellular viability / proliferation (Cell TiterGlo, 72 h); format: cell-based; settings: Homo sapiens, NCI-H929, 72 h, read-out: GI50 on cellular proliferation of H929 human cancer cell lines, H929 cells, 72 h, Cell TiterGlo, 10% FBS
Summary of the method: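 Plating is at 1,000 cells/well in 10% FBS medium; after 24 h, compound is added as a 2-fold series starting at 50 μM with under 1% DMSO.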

Mcl-1 = Mcl-1 (Homo sapiens (Human), UniProt Q07820); assay: TR-FRET binding assay, FITC-Bak peptide and MBP-tagged Mcl-1; settings: read-out: Ki for Inhibition of Mcl-1 by TR-FRET assay
Protocol: Compounds are diluted in DMSO in a 16-point, semilog serial dilution scheme. […] The plate was mixed and incubated for 3 hours at room temperature. […] TR-FRET signal is plotted and IC50 and Ki values are calculated in the same manner as the fluorescence polarization anisotropy based competition assays.

Chain of Mcl-1 (Q07820 172-327): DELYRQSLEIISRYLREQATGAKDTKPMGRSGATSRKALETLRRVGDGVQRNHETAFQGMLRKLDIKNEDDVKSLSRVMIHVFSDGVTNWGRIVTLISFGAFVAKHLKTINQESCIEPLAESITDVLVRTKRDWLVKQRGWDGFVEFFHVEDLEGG

| SMILES | GI50 [1] [nM] | Ki (Mcl-1) [nM] |
| --- | --- | --- |
| Cc1cc(OCCCc2c3n(c4c(-c5c(C)nn(C)c5C)c(Cl)ccc24)[C@H](C)CN(c2cn(C)c4ncc(C(=O)O)cc24)C3=O)cc(C)c1Cl [Example 575, (R)-3-(7-chloro-10-(3-(4-chloro-3,5-dimethylphenoxy)propyl)-4-methyl-1-oxo-6-(1,3,5-trimethyl-1H-pyrazol-4-yl)-3,4-dihydropyrazino[1,2-a]indol-2(1H)-yl)-1-methyl-1H-pyrrolo[2,3-b]pyridine-5-carboxylic acid] | 740 | < 0.2 |
| COCCn1c(C(=O)O)cc2cc(OC)cc(N3C[C@@H](C)n4c(c(CCCOc5cc(C)c(Cl)c(C)c5)c5ccc(Cl)c(-c6c(C)ncnc6C)c54)C3=O)c21 [Example 660, (R)-7-(7-chloro-10-(3-(4-chloro-3,5-dimethylphenoxy)propyl)-6-(4,6-dimethylpyrimidin-5-yl)-4-methyl-1-oxo-3,4-dihydropyrazino[1,2-a]indol-2(1H)-yl)-5-methoxy-1-(2-methoxyethyl)-1H-indole-2-carboxylic acid] | 330 | < 0.2 |
| Cc1cc(OCCCc2c3n(c4c(-c5c(C)nn(C)c5C)c(Cl)ccc24)[C@H](C)CN(c2cn(Cc4ccccn4)c4ccc(C(=O)O)cc24)C3=O)cc(C)c1Cl [Example 561, (R)-3-(7-chloro-10-(3-(4-chloro-3,5-dimethylphenoxy)propyl)-4-methyl-1-oxo-6-(1,3,5-trimethyl-1H-pyrazol-4-yl)-3,4-dihydropyrazino[1,2-a]indol-2(1H)-yl)-1-(pyridin-2-ylmethyl)-1H-indole-5-carboxylic acid] | 510 | < 0.2 |
| Cc1cc(OCCCc2c3n(c4c(-c5c(C)nn(C)c5C)c(Cl)ccc24)[C@H](C)CN(c2cccc4c(C(=O)O)ccnc24)C3=O)cc(C)c1Cl [Example 661, (R)-8-(7-chloro-10-(3-(4-chloro-3,5-dimethylphenoxy)propyl)-4-methyl-1-oxo-6-(1,3,5-trimethyl-1H-pyrazol-4-yl)-3,4-dihydropyrazino[1,2-a]indol-2(1H)-yl)quinoline-4-carboxylic acid] | 2400 | 0.23 |
| COCCn1cc(N2C[C@@H](C)n3c(c(CCCOc4cc(C)c(Cl)c(C)c4)c4ccc(Cl)c(-c5c(C)nn(C)c5C)c43)C2=O)c2cc(-c3ncn(CC4COC4)n3)ccc21 [Example 581, (R)-7-Chloro-10-(3-(4-chloro-3,5-dimethylphenoxy)propyl)-2-(1-(2-methoxyethyl)-5-(1-(oxetan-3-ylmethyl)-1H-1,2,4-triazol-3-yl)-1H-indol-3-yl)-4-methyl-6-(1,3,5-trimethyl-1H-pyrazol-4-yl)-3,4-dihydropyrazino[1,2-a]indol-1(2H)-one] | 250 | 3.7 |
| COCCn1cc(N2C[C@@H](C)n3c(c(CCCOc4cc(C)c(Cl)c(C)c4)c4ccc(Cl)c(-c5c(C)nn(C)c5C)c43)C2=O)c2cc(-c3ncn(CC4CN(C(C)=O)C4)n3)ccc21 [Example 618, (R)-2-(5-(1-((1-Acetylazetidin-3-yl)methyl)-1H-1,2,4-triazol-3-yl)-1-(2-methoxyethyl)-1H-indol-3-yl)-7-chloro-10-(3-(4-chloro-3,5-dimethylphenoxy)propyl)-4-methyl-6-(1,3,5-trimethyl-1H-pyrazol-4-yl)-3,4-dihydropyrazino[1,2-a]indol-1(2H)-one] | 360 | 3.8 |
| COCCOc1cc(N2C[C@@H](C)n3c(c(CCCOc4cc(C)c(Cl)c(C)c4)c4ccc(Cl)c(-c5c(C)n[nH]c5C)c43)C2=O)c2c(c1)cc(C(=O)O)n2C [Example 716, (R)-7-(7-chloro-10-(3-(4-chloro-3,5-dimethylphenoxy)propyl)-6-(3,5-dimethyl-1H-pyrazol-4-yl)-4-methyl-1-oxo-3,4-dihydropyrazino[1,2-a]indol-2(1H)-yl)-5-(2-methoxyethoxy)-1-methyl-1H-indole-2-carboxylic acid] | 550 | < 0.2 |
| COc1cc(N2C[C@@H](C)n3c(c(CCCOc4cc(C)c(Cl)c(C)c4)c4ccc(Cl)c(-c5c(C)nn(C)c5C)c43)C2=O)c2c(c1)c(C(=O)O)cn2Cc1ccccn1 [Example 605, (R)-7-(7-chloro-10-(3-(4-chloro-3,5-dimethylphenoxy)propyl)-4-methyl-1-oxo-6-(1,3,5-trimethyl-1H-pyrazol-4-yl)-3,4-dihydropyrazino[1,2-a]indol-2(1H)-yl)-5-methoxy-1-(pyridin-2-ylmethyl)-1H-indole-3-carboxylic acid] | 490 | 0.45 |
| Cc1cc(OCCCc2c3n(c4c(-c5c(C)nn(C)c5C)c(Cl)ccc24)[C@H](C)CN(c2cn(C)c4ncc(C(=O)O)nc24)C3=O)cc(C)c1Cl [Example 585, (R)-7-(7-chloro-10-(3-(4-chloro-3,5-dimethylphenoxy)propyl)-4-methyl-1-oxo-6-(1,3,5-trimethyl-1H-pyrazol-4-yl)-3,4-dihydropyrazino[1,2-a]indol-2(1H)-yl)-5-methyl-5H-pyrrolo[2,3-b]pyrazine-2-carboxylic acid] | 1500 | < 0.2 |
| Cc1cc(OCCCc2c3n(c4c(-c5c(C)nn(C)c5C)c(Cl)ccc24)[C@H](C)CN(c2cn(C)c4ccc(-c5ncn(-c6ncccn6)n5)cc24)C3=O)cc(C)c1Cl [Example 646, (R)-7-Chloro-10-(3-(4-chloro-3,5-dimethylphenoxy)propyl)-4-methyl-2-(1-methyl-5-(1-(pyrimidin-2-yl)-1H-1,2,4-triazol-3-yl)-1H-indol-3-yl)-6-(1,3,5-trimethyl-1H-pyrazol-4-yl)-3,4-dihydropyrazino[1,2-a]indol-1(2H)-one] | 240 | 0.3 |
| Cc1cc(OCCCc2c3n(c4c(-c5c(C)nn(C)c5C)c(Cl)ccc24)[C@H](C)CN(c2cc(CN4CCN(C)C(=O)C4)cc4cc(C(=O)O)n(C)c24)C3=O)cc(C)c1Cl [Example 628, (R)-7-(7-chloro-10-(3-(4-chloro-3,5-dimethylphenoxy)propyl)-4-methyl-1-oxo-6-(1,3,5-trimethyl-1H-pyrazol-4-yl)-3,4-dihydropyrazino[1,2-a]indol-2(1H)-yl)-1-methyl-5-((4-methyl-3-oxopiperazin-1-yl)methyl)-1H-indole-2-carboxylic acid] | 440 | < 0.2 |
| COCc1cc(N2C[C@@H](C)n3c(c(CCCOc4cc(C)c(Cl)c(C)c4)c4ccc(Cl)c(-c5c(C)nn(C)c5C)c43)C2=O)c2c(c1)cc(C(=O)O)n2Cc1ccccn1 [Example 691, (R)-7-(7-chloro-10-(3-(4-chloro-3,5-dimethylphenoxy)propyl)-4-methyl-1-oxo-6-(1,3,5-trimethyl-1H-pyrazol-4-yl)-3,4-dihydropyrazino[1,2-a]indol-2(1H)-yl)-5-(methoxymethyl)-1-(pyridin-2-ylmethyl)-1H-indole-2-carboxylic acid] | < 200 | < 0.2 |
| Cc1cc(OCCCc2c3n(c4c(-c5c(C)nn(C)c5C)c(Cl)ccc24)[C@H](C)CN(c2cn(C)c4ccc(-n5cncn5)cc24)C3=O)cc(C)c1Cl [Example 681, (R)-7-Chloro-10-(3-(4-chloro-3,5-dimethylphenoxy)propyl)-4-methyl-2-(1-methyl-5-(1H-1,2,4-triazol-1-yl)-1H-indol-3-yl)-6-(1,3,5-trimethyl-1H-pyrazol-4-yl)-3,4-dihydropyrazino[1,2-a]indol-1(2H)-one] | 940 | 5.5 |
| Cc1cc(OCCCc2c3n(c4c(-c5c(C)nn(C)c5C)c(Cl)ccc24)[C@H](C)CN(c2cn(CC(=O)N(C)C)c4ccc(-c5ncccn5)cc24)C3=O)cc(C)c1Cl [Example 637, (R)-2-(3-(7-Chloro-10-(3-(4-chloro-3,5-dimethylphenoxy)propyl)-4-methyl-1-oxo-6-(1,3,5-trimethyl-1H-pyrazol-4-yl)-3,4-dihydropyrazino[1,2-a]indol-2(1H)-yl)-5-(pyrimidin-2-yl)-1H-indol-1-yl)-N,N-dimethylacetamide] | 530 | 1.3 |
| Cc1cc(OCCCc2c3n(c4c(-c5c(C)nn(C)c5C)c(Cl)ccc24)[C@H](C)CN(c2cn(C)c4ccc(C(=O)O)nc24)C3=O)cc(C)c1Cl [Example 489, (R)-3-(7-Chloro-10-(3-(4-chloro-3,5-dimethylphenoxy)propyl)-4-methyl-1-oxo-6-(1,3,5-trimethyl-1H-pyrazol-4-yl)-3,4-dihydropyrazino[1,2-a]indol-2(1H)-yl)-1-methyl-1H-pyrrolo[3,2-b]pyridine-5-carboxylic acid] | < 200 | < 0.2 |
| COCCOc1cc(N2C[C@@H](C)n3c(c(CCCOc4cc(C)c(Cl)c(C)c4)c4ccc(Cl)c(-c5c(C)nn(C)c5C)c43)C2=O)c2c(c1)c(C(=O)O)cn2Cc1ccccn1 [Example 609, (R)-7-(7-chloro-10-(3-(4-chloro-3,5-dimethylphenoxy)propyl)-4-methyl-1-oxo-6-(1,3,5-trimethyl-1H-pyrazol-4-yl)-3,4-dihydropyrazino[1,2-a]indol-2(1H)-yl)-5-(2-methoxyethoxy)-1-(pyridin-2-ylmethyl)-1H-indole-3-carboxylic acid] | 340 | 0.26 |
| COCCn1cc(C(=O)O)c2c(OC)ccc(N3C[C@@H](C)n4c(c(CCCOc5cc(C)c(Cl)c(C)c5)c5ccc(Cl)c(-c6c(C)nn(C)c6C)c54)C3=O)c21 [Example 625, (R)-7-(7-chloro-10-(3-(4-chloro-3,5-dimethylphenoxy)propyl)-4-methyl-1-oxo-6-(1,3,5-trimethyl-1H-pyrazol-4-yl)-3,4-dihydropyrazino[1,2-a]indol-2(1H)-yl)-4-methoxy-1-(2-methoxyethyl)-1H-indole-3-carboxylic acid] | 420 | 0.22 |
